This data set is described as follows: pKa and ionisation of active ingredients. The format is physicochemical. As to conditions: at a pH of 8.3.

The structures appear in SMILES notation.

`CN(C)CCOC(c1ccccc1)c1ccccc1` [diphenhydramine] came in with an ionized of 50%.

Values taken from patent US20060073189A1, “Chewing gums, lozenges, candies, tablets, liquids, and sprays for efficient delivery of medications and dietary supplements” (priority 2000, published 2006).
